Data from ChEMBL document CHEMBL3351455, “Discovery of 2-(cyclopentylamino)thieno[3,2-d]pyrimidin-4(3H)-one derivatives as a new series of potent phosphodiesterase 7 inhibitors” (J Med Chem, 2014).

Experiments:
[1] = target: High affinity 3',5'-cyclic-AMP phosphodiesterase 7A (Homo sapiens, UniProt Q13946); test: Inhibition of human PDE7A1 expressed in insect cells assessed as inhibition of [3H]cAMP to [3H]AMP hydrolysis after 30 mins by scintillation counting
[2] = target: 3',5'-cyclic-AMP phosphodiesterase 4B (Homo sapiens, UniProt Q07343); test: Inhibition of human PDE4B1 expressed in insect cells assessed as inhibition of [3H]cAMP to [3H]AMP hydrolysis after 30 mins by scintillation counting
3',5'-cyclic-AMP phosphodiesterase 4B, sequence (Q07343 whole entry): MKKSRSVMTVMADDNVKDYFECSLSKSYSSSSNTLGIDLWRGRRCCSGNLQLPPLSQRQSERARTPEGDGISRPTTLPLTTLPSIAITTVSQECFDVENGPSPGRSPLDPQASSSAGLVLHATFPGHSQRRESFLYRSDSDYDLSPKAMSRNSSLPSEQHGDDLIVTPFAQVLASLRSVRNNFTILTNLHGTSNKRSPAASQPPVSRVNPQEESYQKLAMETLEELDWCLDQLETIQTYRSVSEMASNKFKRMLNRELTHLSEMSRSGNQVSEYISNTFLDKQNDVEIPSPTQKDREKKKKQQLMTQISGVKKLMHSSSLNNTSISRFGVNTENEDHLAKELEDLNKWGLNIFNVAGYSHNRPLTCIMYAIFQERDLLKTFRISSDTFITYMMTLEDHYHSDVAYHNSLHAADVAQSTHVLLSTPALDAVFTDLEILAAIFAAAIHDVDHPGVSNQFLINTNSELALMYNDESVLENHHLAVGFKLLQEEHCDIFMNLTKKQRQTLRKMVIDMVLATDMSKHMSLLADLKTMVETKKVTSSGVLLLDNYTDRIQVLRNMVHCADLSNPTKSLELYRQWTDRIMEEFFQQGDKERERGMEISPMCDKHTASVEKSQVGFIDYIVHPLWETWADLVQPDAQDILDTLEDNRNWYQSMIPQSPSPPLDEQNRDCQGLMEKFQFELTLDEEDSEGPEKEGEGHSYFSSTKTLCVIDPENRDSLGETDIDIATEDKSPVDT

[3] = system: Lymphocyte; test: Inhibition of IL2 production in activated mouse lymphocytes after 3 hrs by ELISA; type: functional, cell-based
[4] = Permeability of the compound by PAMPA; type: ADME
[5] = system: Liver microsome; test: Stability in rat liver microsomes; type: ADME
[6] = system: Liver microsome; test: Stability in human liver microsomes; type: ADME

High affinity 3',5'-cyclic-AMP phosphodiesterase 7A, sequence (Q13946 whole entry): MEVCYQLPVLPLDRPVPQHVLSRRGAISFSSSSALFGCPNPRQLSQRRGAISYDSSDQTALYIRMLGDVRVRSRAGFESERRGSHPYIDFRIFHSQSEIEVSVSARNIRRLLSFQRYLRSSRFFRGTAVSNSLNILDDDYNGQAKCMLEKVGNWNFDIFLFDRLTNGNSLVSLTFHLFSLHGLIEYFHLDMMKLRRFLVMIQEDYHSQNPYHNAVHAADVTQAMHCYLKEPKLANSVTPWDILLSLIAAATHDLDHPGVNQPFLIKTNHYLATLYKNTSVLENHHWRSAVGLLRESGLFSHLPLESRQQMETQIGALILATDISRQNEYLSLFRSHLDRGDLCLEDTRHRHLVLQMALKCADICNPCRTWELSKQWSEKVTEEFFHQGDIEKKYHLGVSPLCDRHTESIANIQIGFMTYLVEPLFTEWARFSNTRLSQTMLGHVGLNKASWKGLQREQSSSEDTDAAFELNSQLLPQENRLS

Row | SMILES | IC50 [1] | IC50 [2] | IC50 [3] | permeability [4] | Stability [5] | Stability [6]
1 | CCn1c(NC2CCCC2)nc2ccsc2c1=O | 150 nM | 4900 nM | 5400 nM | – | – | –
2 | CCn1c(NC2CCCC2)nc2c(C)csc2c1=O | 98 nM | 3800 nM | > 3000 nM | – | – | –
3 | CCc1csc2c(=O)n(CC)c(NC3CCCC3)nc12 | 42 nM | 5900 nM | 2900 nM | – | – | –
4 | C=Cc1csc2c(=O)n(CC)c(NC3CCCC3)nc12 | 30 nM | 3700 nM | 980 nM | – | – | –
5 | C#Cc1csc2c(=O)n(CC)c(NC3CCCC3)nc12 | – | 3000 nM | 560 nM | – | – | –
6 | CCn1c(NC2CCCC2)nc2c(C#N)csc2c1=O | 67 nM | 3200 nM | 890 nM | – | – | –
7 | CCn1c(NC2CCCC2)nc2c(C#Cc3cccnc3)csc2c1=O | 4.2 nM | 1400 nM | 1300 nM | – | – | –
8 | CCn1c(NC2CCCC2)nc2c(C#CCN3CCOCC3)csc2c1=O | 19 nM | 820 nM | 1700 nM | – | – | –
9 | CCn1c(NC2CCCC2)nc2c(CCc3cccnc3)csc2c1=O | 7.3 nM | 1100 nM | 1000 nM | – | – | –
10 | CCn1c(NC2CCCC2)nc2c(-c3ccccc3)csc2c1=O | 5.6 nM | 720 nM | 1800 nM | – | – | –
11 | CCn1c(NC2CCCC2)nc2c(-c3ccccc3C(=O)OC)csc2c1=O | 380 nM | 3800 nM | 9100 nM | – | – | –
12 | CCn1c(NC2CCCC2)nc2c(-c3cccnc3)csc2c1=O | 2 nM | 380 nM | 89 nM | permeable | Unstable | Unstable
13 | CCn1c(NC2CCCC2)nc2c(-c3ccc(N4CCOCC4)nc3)csc2c1=O | – | 520 nM | 77 nM | permeable | Unstable | Unstable
14 | CCn1c(NC2CCCC2)nc2c(N3CCN(C(=O)OC(C)(C)C)CC3=O)csc2c1=O | 12 nM | 3300 nM | 3000 nM | – | – | –

More lines, main results first:

Row | IC50 [1] | SMILES | IC50 [2] | IC50 [3] | permeability [4] | Stability [5] | Stability [6]
15 | 160 nM | C=CCNc1nc2cc(-c3ccc(N4CCN(C(C)C)CC4)cc3)sc2c(=O)n1C | – | – | – | – | –
16 | 1100 nM | C=CCNc1nc2cc(-c3cccc(C(=O)NCCO)c3)sc2c(=O)n1C | – | – | – | – | –
17 | 310 nM | C=CCNc1nc2cc(-c3ccc(C(=O)NCCCN(C)C)cc3)sc2c(=O)n1C | – | – | – | – | –
18 | 6800 nM | C=CCNc1nc2cc(-c3ccccc3)sc2c(=O)n1C | – | – | – | – | –
19 | 5000 nM | C=CCNc1nc2ccsc2c(=O)n1C | – | – | – | – | –
20 | 740 nM | CCn1c(NC2CCCCC2)nc2ccsc2c1=O | – | – | – | – | –
21 | 11000 nM | CCn1c(NC2CCCC2)nc2cc(C)sc2c1=O | – | – | – | – | –
22 | 6500 nM | CCc1cc2nc(NC3CCCC3)n(CC)c(=O)c2s1 | 3500 nM | – | – | – | –
23 | > 1000 nM | CCn1c(NC2CCCC2)nc2cc(CNc3cccnc3)sc2c1=O | 920 nM | – | – | – | –
24 | 2600 nM | CCn1c(NC2CCCC2)nc2cc(C(=O)Nc3ccc(N4CCC(O)CC4)nc3)sc2c1=O | – | – | – | – | –
25 | 39 nM | CCn1c(NC2CCCC2)nc2c(CCCN3CCOCC3)csc2c1=O | 3400 nM | 2000 nM | – | – | –
26 | 5 nM | CCn1c(NC2CCCC2)nc2c(-c3cccc(C(=O)OC)c3)csc2c1=O | 480 nM | 290 nM | – | – | –
27 | 4.9 nM | CCn1c(NC2CCCC2)nc2c(-c3ccc(C(=O)OC)cc3)csc2c1=O | 1000 nM | 1300 nM | – | – | –
28 | 2.3 nM | CCn1c(NC2CCCC2)nc2c(-c3ccc(CN4CCOCC4)cc3)csc2c1=O | 640 nM | 1000 nM | permeable | Unstable | Unstable
